Patent US20240084354A1, “MEANS AND METHODS FOR REGULATING INTRACELLULAR TRAFFICKING OF SECRETORY OR CELL MEMBRANE-ANCHORED PROTEINS OF INTEREST” (HONING BIOSCIENCES, priority 2020, published 2024)
Entries after “also recorded” stand apart in the source; their conditions may differ.

Legend:
[1] = system: HEK blue IL-2 reporter cell line; assay: Cytokine activity of medium of transduced HeLa cells on reporter cell line HEK blue IL-2; type: cell-based; conditions: no biotin
Procedure: Cells were treated with 40 μM biotin for 0 minute, 15 minutes, 60 minutes, 90 minutes, 120 minutes or 4320 minutes (=72 hours).
After treatment of the cells, the cell medium (1500 μL) was collected and centrifuged (300 g, 4° C., 5-10 minutes) to remove dead cells.
The cell medium of the RUSH-transduced cells was added into a cell culture 96-well plate (flat bottom) at a dilution 1/80 to 1/100 followed by the platting of HEK-Blue cells at approximately 50 000 cells/well. On the next day (after approximately 24 hours), 20 μL of the supernatant of these cells was transferred to a new plate and 180 μL of QUANTI-Blue substrate was added and incubated at 37° C. and 5% of C02 for 1-3 hours. The absorbance was then measured at 620 nm. The response ratio of the cytokines was determined by dividing the value of absorbance of the treated cells by non-treated cells. The values were them normalized to WT cells line.

HeLa cells [2] = assay: Western blot (GFP revelation) of cell medium and cell extract of transduced HeLa cells; type: cell-based; conditions: 40 μM biotin, 60 minutes or O/N
Procedure: Cells for western blotting were treated either treated or not with 40 μM biotin or higher for 60 minutes or over-night (0/N).
After biotin treatment, the supernatant was recovered and centrifuged for removal of the detached or dead cells at 300 g, 4° C., for 5-10 minutes and kept on ice. While the cells (defined hereafter as pellet) were incubated with protein loading buffer 1×(5 mM Tris-HCl, pH 7.0, 30 mM ethylenediaminetetra acid (EDTA), pH 8.0; 0.01% bromophenol blue, 5% glycerol) for 5 minutes at room temperature, scratched and transfer to a new tube followed by denaturation at 95-100° C. for 10-20 minutes. The supernatant (from adherent or suspension cells) were incubated with StrataClean Resin (Agilent) to collect and concentrate protein present in the supernatant, for at least 2 hours at 4° C. with orbital agitation. […] Cytokines were detected using monoclonal anti-GFP (1/1000; Roche) in 5% skim milk in 0.1% Tween-20 PBS for 1 hour at room temperature or overnight (0/N) at 4° C., followed by the respective horseradish peroxidase (HRP) conjugated secondary polyclonal antibody (1/15000) in 5% skim milk in 0.1% Tween-20 PBS for 1 hour at room temperature. […]

HeLa cells [3] = assay: Immunofluorescence of transduced HeLa cells (GFP/Cherry staining), with or without biotin; type: cell-based; conditions: 40 μM biotin
Procedure: HeLa cells were plated on a cell culture plate and transduced with said lentiviral particle at a MOI between 1 and 5 for 2 days.
Transduced HeLa cells were plated on coverslip for immunofluorescence assay.
Transduced cells either received no treatment or were treated with 40 μM of biotin.
Cells for immunofluorescence assay were either treated or not with 40 μM or higher of biotin for 15 minutes, 75 minutes or 16 hours (steady-state).
Cells coated onto coverslips were washed once in 1×PBS buffer, fixed in 3% of paraformaldehyde (PFA) for 10-15 minutes at room temperature, then washed twice and alternatively incubated with 50 mM of NH4Cl-1×PBS for 5 minutes at room temperature to quench free aldehydes. The cells were then permeabilized using a solution of PBS containing 0.5% Bovine Serum Albumin (BSA) and 0.05% saponin (Saponin, Sigma-Aldrich) for 15 minutes at room temperature. The coverslips were mounted in Mowiol supplemented with DAPI (4′,6-diamidino-2-phenylindole) for DNA staining.

CTLL-2 NFκB cells = assay: IL-2-induced proliferation of CTLL-2 NFκB cells; type: cell-based; conditions: medium of transduced HeLa cells
Procedure: The relative proliferation and NFκB response measured by luminescence in CTLL2 NFκB was determined as described by Mock et al. (2020. Sci Rep. 10(1):3234). Briefly, CTLL2 NFκB were starved for about 24 hours, i.e., incubated for 24 hours without IL-2 to reduce the background due to the presence of IL-2 in the medium. After starvation, the cells (approximately 50 000 cells/well) in a cell culture 96-well plate (flat bottom) were incubated with the supernatant of the transduced cells either non-treated or treated with biotin diluted at 1/80 to a final volume of 200 μL. The cells were incubated for 72 hours at 37° C. and 5% of C02.
For CTLL-2 proliferation, CellTiter 96 Aqueous One Solution (Promega) was used according to the manufacturer's instructions. Briefly, 100 μL of the cells medium were removed and 20 μL of CellTiter 96 Aqueous One Solution (Promega) were added and incubated at least for 1 hours at 37° C. and 5% of CO2 before reading the absorbance at 490 nm. The relative proliferation or luminescence was determined by dividing the absorbance of treated cells by non-treated cells.

[4] = system: Primary CD8+ T or CD4/CD8+ T cells; assay: Flow cytometry of GFP fluorescence in transduced primary T cells; type: cell-based, human
Procedure: T cells were isolated from leukocyte reduction system chamber (LRSC) from blood of healthy donors by negative selection using the EasySep Direct Human T cell isolation kit (STEM cells) or MACSxpress LRSC Pan T Cell Isolation Kit, human (Miltenyi) according to the manufacturer's instructions.
Primary CD8^+ T or CD4/CD8^+ T cells were plated into culture plates and transduced with said lentiviral particle at a MOI between 1 and 5 for 3 days.
Primary CD8^+ T or CD4/CD8^+ T cells were plated into culture plates for Flow cytometry assay.
To prevent cytokines released due to the possible presence of biotin in TexMacs buffer, 1 μg/mL of avidin was added to chelate biotin, starting from the day of transduction and following days of cell culture. […]
(§1) After incubation with biotin, the cells were immediately transfer on ice, to inhibit or slow down the traffic of the cargo, followed by centrifugation (300 g, 4° C., 5 minutes), washed twice in cold 1×PBS (300 g, 4° C., 5 minutes) and incubated with live/dead fixable staining (20 minutes, on ice; Thermofisher). The cells were then washed twice in cold PBS (300 g, 4° C., 5 minutes) or FACS buffer (1×PBS, 1% BSA, 0.05% sodium azide, 1 mL EDTA 0.5 M, filtered and kept at 4° C.) and, when not analyzed immediately, the cells were fixed in 3% PFA-1×PBS (10 minutes, RT) and washed twice in 1×PBS.

Jurkat cells = assay: Flow cytometry of GFP fluorescence in transduced Jurkat cells; type: cell-based
Procedure: Transduced cells either received no treatment or were treated with 40 μM of biotin for 15 minutes, 60-75 minutes or overnight (0/N).
The RPMI medium was supplemented with 14 μg/mL of avidin to chelate the existing biotin present in the medium.
as §1
Transduced cells either received no treatment or were treated with 40 μM of biotin for 6 hours.
Transduction of HEK293FT and Jurkat cells were done using the same volume v/v of particles for each construct increasingly.
The expression of the cytokine was evaluated by measuring GFP using flow cytometry, three days later for HEK293FT and more than six days later for Jurkat cells. […]
For both types of cells, the expression of the cytokine was evaluated by measuring GFP using flow cytometry, 3 days later for HEK293FT and more than 6 days later for Jurkat cells. […]

SPCCL5-IL-2-SBP-eGFP: RUSH system with Interleukin-2 fused to SBP and eGFP using the signal peptide of CCL5 (SEQ ID NO: 603) (MKVSAAALAVILIATALCAPASA; Signal peptide of CCL5)
Response of the reporter cell line in the absence of biotin [1]: induced a small response by the reporter cell line
Cytokine secretion in cell medium upon biotin addition (western blot) (HeLa cells [2]): the highest secretion was observed after O/N with biotin
Traffic and secretion of the cytokine upon biotin addition (immunofluorescence) (HeLa cells [3]): After 15 minutes with biotin treatment, the cytokine was localized in the Golgi; also recorded: at 75 minutes, a high percentage of the cytokine still remained in the Golgi; also recorded: At 4 hours, most of the cytokine had been secreted
CTLL-2-NFκB cell proliferation after 4320 minutes of biotin (CTLL-2 NFκB cells; biotin 4320 minutes): seemed to better sustain cell activation
CTLL-2-NFκB cell proliferation, biotin for more than 60 minutes (CTLL-2 NFκB cells; biotin more than 60 minutes): a significant increase in cell proliferation was observed
CTLL-2-NFκB cell proliferation in absence of biotin (CTLL-2 NFκB cells; no biotin): proliferated

CCL5-SBP-eGFPhibit: RUSH system with CCL5 fused to SBP and to eGFP containing HiBit tag (SEQ ID NO: 604) (VSGWRLFKKIS; HiBit tag)
GFP-expressing cells upon addition of biotin ([4]; 40 μM biotin): decrease of GFP-expressing cells
Efficiency of transduction / T cells expressing the cytokine ([4]; absence of biotin): 6%
GFP upon addition of biotin within 6 hours (flow cytometry) (Jurkat cells; 40 μM biotin, 6 hours): showed a decrease in GFP-expressing cells
Intracellular GFP expression without biotin treatment (flow cytometry) (Jurkat cells; no biotin): showed a proper intracellular GFP expression
